Usually IC50 stands for the concentration that gives 50% inhibition.

indoleamine 2,3-dioxygenase (IDO), sequence (P14902 whole entry): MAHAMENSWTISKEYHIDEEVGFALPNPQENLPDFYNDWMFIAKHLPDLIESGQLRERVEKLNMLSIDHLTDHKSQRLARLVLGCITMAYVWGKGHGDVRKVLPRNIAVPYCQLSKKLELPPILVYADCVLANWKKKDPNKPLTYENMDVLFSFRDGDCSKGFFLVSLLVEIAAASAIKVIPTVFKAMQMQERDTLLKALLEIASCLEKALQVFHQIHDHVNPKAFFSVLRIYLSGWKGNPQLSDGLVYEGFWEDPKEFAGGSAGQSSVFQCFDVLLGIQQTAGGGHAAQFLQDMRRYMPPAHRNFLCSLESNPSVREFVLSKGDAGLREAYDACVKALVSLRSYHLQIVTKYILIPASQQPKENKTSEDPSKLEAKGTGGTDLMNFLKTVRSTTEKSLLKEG

One test concerns the target indoleamine 2,3-dioxygenase (IDO) (Homo sapiens, UniProt P14902). Briefly: HeLa cell-based indoleamine 2,3-dioxygenase (IDO) assay (kynurenine production, IFNγ-stimulated). Particulars: HeLa cells, IFNγ 25 ng/mL, 48 hour incubation; read-out: IDO Hela IC50. As for the experimental part: Assessment of inhibitor activity in HeLa cell-based indoleamine 2,3-dioxygenase (IDO) assay. HeLa (ATCC® CCL-2) cells were obtained from the ATCC® and cultured in Dulbecco's Modified Eagle Medium supplemented with 4.5 g/L glucose, 4.5 […] sodium pyruvate (#10-013-CV, Corning), 2 mM L-alanyl-L-glutamine dipeptide (#35050-061, Gibco), 100U/mL penicillin, 100 μg/mL streptomycin (#SV30010, HyClone) and 10% fetal bovine serum (#SH30071.03 HyClone). Cells were maintained in a humidified incubator at 37° C. in 5% CO2. […] After 24 hours, the media was aspirated and replaced with media containing IFNγ (#285-IF/CF, R&D Systems) at a final concentration of 25 ng/mL. A serial dilution of each test compound was added to the cells in a total volume of 200 μL of culture medium. After a further 48 hour incubation, 170 μL of supernatant was transferred from each well to a fresh 96-well plate. 12.1 μL of 6.1N trichloroacetic acid (#T0699, Sigma-Aldrich) was added to each well and mixed, followed by incubation at 65° C. for 20 minutes to hydrolyze N-formylkynurenine, the product of indoleamine 2,3-dioxygenase, to kynurenine. The reaction mixture was then centrifuged for 10 mins at 500×g to sediment the precipitate. 100 μL of the supernatant was transferred from each well to a fresh 96-well plate. 100 μl of 2% (w/v) p-dimethylaminobenzaldehyde (#15647-7, Sigma-Aldrich) in acetic acid (#A6283, Sigma-Aldrich) was added to each well mixed and incubated at room temperature for 20 mins. Kynurenine concentrations were determined by measuring absorbance at 480 nm and calibrating against an L-kynurenine (#K8625, Sigma-Aldrich) standard curve using a SPECTRAMAX® M2e microplate reader (Molecular Devices). The percentage activity at each inhibitor concentration was determined and IC50 values assessed using nonlinear regression. Activity for compounds described herein is provided in Table 1, wherein potency levels are provided as follows: (Potency: IDO IC50: […])
Take `CCC(NC(=O)c1ccc(OC)nc1)C1CCC(c2ccnc3ncccc23)CC1` (mixture of isomers) [Example 52, (+/−)-Cis and trans N-(1-(4-(1,8-naphthyridin-4-yl)cyclohexyl)propyl)-6-methoxynicotinamide]: the IC50 is 30 nM. Still for that read-out and setting: with `CCC(NC(=O)c1ccc(OC)nc1)[C@H]1CC[C@@H](c2ccnc3c(OC)cc(C(F)(F)F)cc32)CC1` (mixture of isomers) [Example 44, (±)-6-methoxy-N-(1-((cis)-4-(8-methoxy-6-(trifluoromethyl)quinolin-4-yl)cyclohexyl)propyl)nicotinamide] the figure was 10 nM; with `COc1ccc(C(=O)NC(CC#N)[C@H]2CC[C@@H](c3ccnc4ccc(F)cc43)CC2)cn1` (mixture of isomers) [Example 54, Cis or trans-N-(2-cyano-1-((1s,4s)-4-(6-fluoroquinolin-4-yl)cyclohexyl)ethyl)-6-methoxynicotinamide], 10 nM.

Regarding `CCC(NC(=O)c1ccc(OC)nc1)C1CCC(c2ccnc3ccc(C(F)(F)F)cc23)CC1` (single isomer, unassigned) [Example 11a, 6-Methoxy-N-(1-((1s,4s)-4-(6-(trifluoromethyl)quinolin-4-yl)cyclohexyl)propyl)nicotinamide], the IC50 was 100 nM. In the case of `COCC(NC(=O)c1ccc(OC)nc1)C1CCC(c2ccnc3ccc(C(F)(F)F)cc23)CC1` (single isomer, unassigned) [Example 12a, 6-Methoxy-N-(2-methoxy-1-((1s,4s)-4-(6-(trifluoromethyl)quinolin-4-yl)cyclohexyl)ethyl)nicotinamide], the IC50 turned out to be 80 nM. In the case of `CCOC[C@@H](NC(=O)c1ccc(OC)nc1)[C@H]1CC[C@@H](c2ccnc3ccc(C(F)(F)F)cc32)CC1` (single isomer, unassigned) [Example 13a, N-(2-Ethoxy-1-(4-(6-(trifluoromethyl)quinolin-4-yl)cyclohexyl)ethyl)-6-methoxynicotinamide], the IC50 stood at 80 nM.

As to `CCOC[C@@H](NC(=O)c1ccc(OC)nc1)[C@H]1CC[C@@H](c2ccnc3ccc(C(F)(F)F)cc32)CC1` (single isomer, unassigned) [Example 13d, N-(2-Ethoxy-1-(4-(6-(trifluoromethyl)quinolin-4-yl)cyclohexyl)ethyl)-6-methoxynicotinamide], the IC50 amounted to 940 nM. Consider `COCCOCC(NC(=O)c1ccc(OC)nc1)C1CCC(c2ccnc3ccc(F)cc23)CC1` (single isomer, unassigned) [Example 15b, N-(1-((1s,4s)-4-(6-Fluoroquinolin-4-yl)cyclohexyl)-2-(2-methoxyethoxy)ethyl)-6-methoxynicotinamide], for which the IC50 worked out at 10 nM. On to `COCCOCC(NC(=O)c1cnc(OC)nc1)C1CCC(c2ccnc3ccc(F)cc23)CC1` (single isomer, unassigned) [Example 16a, N-(1-((1s,4s)-4-(6-Fluoroquinolin-4-yl)cyclohexyl)-2-(2-methoxyethoxy)ethyl)-2-methoxypyrimidine-5-carboxamide], for which the IC50 worked out at 40 nM. Take `COc1ccc(C(=O)N[C@H](CC2(C)COC2)[C@H]2CC[C@@H](c3ccnc4ccc(C(F)(F)F)cc43)CC2)cn1` (single isomer, unassigned) [Example 17a, 6-Methoxy-N-(2-(3-methyloxetan-3-yl)-1-(4-(6-(trifluoromethyl)quinolin-4-yl)cyclohexyl)ethyl)nicotinamide]: the IC50 came out at 30 nM. The same measure, in the same setting: with `COc1ccc(C(=O)N[C@H](CC2(C)COC2)[C@H]2CC[C@@H](c3ccnc4ccc(C(F)(F)F)cc43)CC2)cn1` (single isomer, unassigned) [Example 17b, 6-Methoxy-N-(2-(3-methyloxetan-3-yl)-1-(4-(6-(trifluoromethyl)quinolin-4-yl)cyclohexyl)ethyl)nicotinamide] the figure was 350 nM; with `CCC(NC(=O)c1ccc(OC)nc1)C1CCC(c2ccnc3c(C(F)(F)F)cccc23)CC1` (single isomer, unassigned) [Example 18a, 6-Methoxy-N-(1-((1s,4s)-4-(8-(trifluoromethyl)quinolin-4-yl)cyclohexyl)propyl)nicotinamide], 830 nM.

The test is the same for the next values; noted with them: HeLa cells; potency class; read-out: Patent Potency Hela IC50 A < 10 nM, B > 10 nM, C > 100 nM.
For the molecule `CCC(NC(=O)c1ccc(OC)nc1)C1CCC(c2ccnc(F)c2C)CC1` (mixture of isomers) [Example 55, (+/−)-Cis and trans-N-(1-(4-(2-fluoro-3-methylpyridin-4-yl)cyclohexyl)propyl)-6-methoxynicotinamide], the IC50 was less than 10 nM. For the molecule `[2H]C([2H])([2H])Oc1ccc(C(=O)NC(CC)[C@H]2CC[C@@H](c3ccnc(OC)c3C(F)F)CC2)cn1` (mixture of isomers) [Example 65, (±)-N-(1-((1s,4s)-4-(3-(difluoromethyl)-2-methoxypyridin-4-yl)cyclohexyl)propyl)-6-(methoxy-d3)nicotinamide], the IC50 is less than 10 nM.

`CCC(NC(=O)c1ccc(OC)nc1)[C@H]1CC[C@H](c2ccnc(F)c2C)CC1` (mixture of isomers) [Example 67, (±)-N-(1-((1r,4r)-4-(2-fluoro-3-methylpyridin-4-yl)cyclohexyl)propyl)-6-methoxynicotinamide]: the IC50 is more than 100 nM. On to `CC[C@@H](NC(=O)c1ccc(OC)nc1)[C@H]1CC[C@@H](c2ccnc3c(F)cccc32)CC1` (relative stereo) [Example 59b, N-(1-(4-(8-fluoroquinolin-4-yl)cyclohexyl)propyl)-6-methoxynicotinamide], for which the IC50 was less than 10 nM. Still for that read-out and setting: with `CCC(NC(=O)c1ccc(OC)nc1)C1CCC(c2ccnc3ccc(C(F)(F)F)cc23)CC1` (single isomer, unassigned) [Example 11b, 6-Methoxy-N-(1-((1s,4s)-4-(6-(trifluoromethyl)quinolin-4-yl)cyclohexyl)propyl)nicotinamide] the figure was less than 10 nM. On the same count and under the same terms, with `COCC(NC(=O)c1ccc(OC)nc1)C1CCC(c2ccnc3ccc(C(F)(F)F)cc23)CC1` (single isomer, unassigned) [Example 12b, 6-Methoxy-N-(2-methoxy-1-((1s,4s)-4-(6-(trifluoromethyl)quinolin-4-yl)cyclohexyl)ethyl)nicotinamide] the figure was less than 10 nM. For the molecule `CCOC[C@@H](NC(=O)c1ccc(OC)nc1)[C@H]1CC[C@@H](c2ccnc3ccc(C(F)(F)F)cc32)CC1` (single isomer, unassigned) [Example 13b, N-(2-Ethoxy-1-(4-(6-(trifluoromethyl)quinolin-4-yl)cyclohexyl)ethyl)-6-methoxynicotinamide], the IC50 is less than 10 nM.

On to `COCCOCC(NC(=O)c1ccc(OC)nc1)C1CCC(c2ccnc3ccc(F)cc23)CC1` (single isomer, unassigned) [Example 15a, N-(1-((1s,4s)-4-(6-Fluoroquinolin-4-yl)cyclohexyl)-2-(2-methoxyethoxy)ethyl)-6-methoxynicotinamide], for which the IC50 is less than 10 nM. Still for that read-out and setting: the figure for `COCCOCC(NC(=O)c1cnc(OC)nc1)C1CCC(c2ccnc3ccc(F)cc23)CC1` (single isomer, unassigned) [Example 16b, N-(1-((1s,4s)-4-(6-Fluoroquinolin-4-yl)cyclohexyl)-2-(2-methoxyethoxy)ethyl)-2-methoxypyrimidine-5-carboxamide] is less than 10 nM; for `COc1ccc(C(=O)N[C@H](CC2(C)COC2)[C@H]2CC[C@@H](c3ccnc4ccc(C(F)(F)F)cc43)CC2)cn1` (single isomer, unassigned) [Example 17c, 6-Methoxy-N-(2-(3-methyloxetan-3-yl)-1-(4-(6-(trifluoromethyl)quinolin-4-yl)cyclohexyl)ethyl)nicotinamide] it is more than 100 nM; for `COc1ccc(C(=O)N[C@H](CC2(C)COC2)[C@H]2CC[C@@H](c3ccnc4ccc(C(F)(F)F)cc43)CC2)cn1` (single isomer, unassigned) [Example 17d, 6-Methoxy-N-(2-(3-methyloxetan-3-yl)-1-(4-(6-(trifluoromethyl)quinolin-4-yl)cyclohexyl)ethyl)nicotinamide] it is more than 100 nM.

For the molecule `CCC(NC(=O)c1ccc(OC)nc1)C1CCC(c2ccnc3c(C(F)(F)F)cccc23)CC1` (single isomer, unassigned) [Example 18b, 6-Methoxy-N-(1-((1s,4s)-4-(8-(trifluoromethyl)quinolin-4-yl)cyclohexyl)propyl)nicotinamide], the concentration for half-maximal inhibition (IC50) is less than 10 nM. The same measure, in the same setting: with `CCC(NC(=O)c1ccc(OC)nc1)C1CCC(c2ccnc3cc(C(F)(F)F)ccc23)CC1` (single isomer, unassigned) [Example 19a, 6-Methoxy-N-(1-((1s,4s)-4-(7-(trifluoromethyl)quinolin-4-yl)cyclohexyl)propyl)nicotinamide] the figure was more than 100 nM.

Source of the values: patent publication US11066392B2, “Inhibitors of indoleamine 2,3-dioxygenase and methods of their use” (BRISTOL-MYERS SQUIBB COMPANY, priority 2017, dated 2021).
